Assay results: publication PMC10108742, “Design, synthesis and evaluation of OA-tacrine hybrids as cholinesterase inhibitors with low neurotoxicity and hepatotoxicity against Alzheimer’s disease” (Journal of Enzyme Inhibition and Medicinal Chemistry, 2023)
Where two headings read alike, the source gives them in different places.

Key:
hAChE = molecular target: T1, hAChE (Homo sapiens, UniProt P22303); experiment: biochemical
T1 construct: purchased Sigma Aldrich
Description: (§1) The capacity of all the target compounds to inhibit hAChE and hBuChE activities were assessed by Ellman’s method. […] Results are expressed as the mean ± SD of at least three different experiments performed in triplicate.
Buffer was freshly prepared and stored in the refrigerator. […] All solutions were stored in Eppendorf caps in the refrigerator or freezer, if necessary. […] The final concentrations for the enzymatic assay were yielded by diluting the stock solution with bi-distilled water.
(§2) A mixture of the DTNB solution (160 µL), enzyme solution (50 µL) and compounds solutions (10 µL, 3 different concentrations and once blank water) was prepared and incubated at 37 °C for 10 min. The substrate (30 µL) was added to start the enzymatic reaction. […] All measurements were performed as triplicates.

hBuChE = molecular target: T2, hBuChE (Homo sapiens, UniProt P06276); experiment: hBuChE inhibition, Ellman's method; type: biochemical; conditions: hBuChE from human serum, mean ± SD of three experiments
T2 construct: purchased Sigma Aldrich
Description: as §1, with “hAChE, hBuChE, Acetylcholinesterase Activity Assay Kit and Butyrylcholinesterase Activity Assay Kit were purchased from Sigma Aldrich. […] The” for “The”
Preparation of 50 mM Tris–HCl buffer solutions: 5 ml Tris solution (1 M, Ph 8.5, Beyotime Biotechnology) was dissolved in distilled water (95 ml) and adjusted with HCl to a pH of 8.0 ± 0.1. Buffer was freshly prepared and stored in the refrigerator. […] All solutions were stored in Eppendorf caps in the refrigerator or freezer, if necessary. […] The final concentrations for the enzymatic assay were yielded by diluting the stock solution with bi-distilled water.
as §2

HepG2 cells [1] = experiment: Cell viability in HepG2 cells, CCK-8 assay; conditions: 24 h
Description: (§3) Figure 5. Effects of various concentrations of compounds on cell viability in SH-SY5Y cells and HepG2 cells after treatment for 24 h. Cell viability was measured by CCK-8 assay. Data were shown as mean ± SD of three independent experiments.
(§4) HepG2 and SH-SY5Y cells were obtained from the Cell Bank of Shanghai Institute of Biochemistry and Cell Biology, Chinese Academy of Sciences (Shanghai, China). HepG2 and SH-SY5Y cells were cultured in MEM or MEM/F12 supplemented with 10% FBS, 100 units mL^−1 penicillin/streptomycin and maintained in a humidified atmosphere of 5% CO2 at 37 °C. Initially, 8000 cells per well were seeded in 96-well plates for HepG2 or SH-SY5Y cells, then treated with vehicle alone or tested compounds for 24 h. Then 10 μL CCK8 purchased from CELLCOOK was added to each well and further incubated for another 3 h. The absorbance was measured using a microplate reader (450 nm).

HepG2 cells [2] = experiment: Apoptosis in HepG2 cells, AnnexinV/PI double staining, flow cytometry; conditions: 50 μM, 24 h, control group 4.34%
Description: Figure 6. […] Apoptotic cells detected by flow cytometry after AnnexinV and PI double staining.
Annexin V-FITC and propidium iodide were used to evaluate apoptotic cells by flow cytometry. Cells were treated with different concentrations of tested compounds for 24 h. Then the cells were washed twice with phosphate-buffered saline (PBS) (centrifugation at 2000 rpm, 5 min). The collected cells were then resuspended in 500 μL of binding buffer. After stained with 5 μL AnnexinV-FITC and 5 μL propidium iodide at room temperature for 15 min. Cells were then analysed by BD Accuri C6 flow cytometer with cell quest software (Becton & Dickinson Company, Franklin Lakes, NJ). Cells undergoing apoptosis are both Annexin V positive and PI negative.

SH-SY5Y cells = experiment: Cell viability in SH-SY5Y cells, CCK-8 assay; conditions: 24 h
Description: as §3, §4

HepG2 cells [3] = experiment: Intracellular ROS production in HepG2 cells, DCFH-DA, flow cytometry; conditions: 50 μM, compared with control / tacrine group
Description: The percentage of cells for ROS was stained with DCFH-DA and the stained cells were immediately determined by flow cytometry.
The level of intracellular ROS was measured by using the ROS-sensitive dye, 2′,7′-dichloro-fluorescein diacetate (DCFH-DA), as a probe. In brief, cells were seeded in six-well plates at 2.0 × 10^5 cells/well, treating with different tested compounds for 24 h, and then washed three times and incubated with final concentration of 10 μM DCFH-DA for 30 min at 37 °C in the dark. After incubation, cells were washed three times and harvested in free-serum medium. […] Data were processed by using cell quest software (Becton & Dickinson Company, Franklin Lakes, NJ).

[4] = hAChE from human erythrocytes, mean ± SD of three experiments

T1 sequence (P22303 32-614): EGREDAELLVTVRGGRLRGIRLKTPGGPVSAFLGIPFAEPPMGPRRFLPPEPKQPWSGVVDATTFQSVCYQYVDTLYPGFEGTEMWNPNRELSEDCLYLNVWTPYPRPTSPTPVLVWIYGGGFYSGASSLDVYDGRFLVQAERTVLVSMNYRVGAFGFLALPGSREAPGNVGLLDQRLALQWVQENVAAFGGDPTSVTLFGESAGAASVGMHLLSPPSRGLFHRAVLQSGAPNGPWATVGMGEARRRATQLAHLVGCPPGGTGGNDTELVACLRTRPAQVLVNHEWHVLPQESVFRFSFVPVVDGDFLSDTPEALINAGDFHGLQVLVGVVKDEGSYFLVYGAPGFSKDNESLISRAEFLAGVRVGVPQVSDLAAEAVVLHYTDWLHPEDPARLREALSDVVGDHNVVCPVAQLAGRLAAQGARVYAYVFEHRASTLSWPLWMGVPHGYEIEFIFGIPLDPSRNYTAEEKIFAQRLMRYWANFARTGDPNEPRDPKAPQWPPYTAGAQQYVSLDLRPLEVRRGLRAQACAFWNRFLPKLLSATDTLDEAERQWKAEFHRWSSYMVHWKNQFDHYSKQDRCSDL
T2 sequence (P06276 29-602): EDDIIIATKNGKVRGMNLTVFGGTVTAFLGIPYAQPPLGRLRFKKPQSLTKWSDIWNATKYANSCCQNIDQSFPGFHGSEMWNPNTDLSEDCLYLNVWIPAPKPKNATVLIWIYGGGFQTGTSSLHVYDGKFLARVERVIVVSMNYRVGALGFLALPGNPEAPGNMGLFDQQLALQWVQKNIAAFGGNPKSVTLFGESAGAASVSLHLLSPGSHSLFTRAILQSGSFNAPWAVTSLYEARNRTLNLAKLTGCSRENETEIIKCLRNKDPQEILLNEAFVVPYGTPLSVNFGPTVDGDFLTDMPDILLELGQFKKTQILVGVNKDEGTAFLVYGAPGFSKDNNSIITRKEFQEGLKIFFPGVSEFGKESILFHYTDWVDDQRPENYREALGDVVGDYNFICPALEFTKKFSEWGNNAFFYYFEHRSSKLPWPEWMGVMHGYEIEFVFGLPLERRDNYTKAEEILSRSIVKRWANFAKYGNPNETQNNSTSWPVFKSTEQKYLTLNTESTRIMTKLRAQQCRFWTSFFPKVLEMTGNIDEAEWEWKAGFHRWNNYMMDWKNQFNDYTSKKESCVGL

Row | SMILES | IC50 (hAChE) | SI (selectivity index, hBuChE/hAChE) (hAChE) | IC50 (hBuChE; read-out: IC50 hBuChE) | IC50 (hBuChE; IC50 hBuChE) | also measured
1 | CC1(C)CC[C@]2(C(=O)NCCCCCNc3c4c(nc5ccccc35)CCCC4)CC[C@]3(C)C(=CCC4[C@@]5(C)CC[C@H](O)C(C)(C)C5CC[C@]43C)C2C1 (stereo partly drawn) [Compound A3] | 0.775 ± 0.28 µM | 3.59 | 2.78 ± 0.0607 µM |  | 
2 | CC1(C)CC[C@]2(C(=O)NCCCCCCNc3c4c(nc5cc(Cl)ccc35)CCCC4)CC[C@]3(C)C(=CCC4[C@@]5(C)CC[C@H](O)C(C)(C)C5CC[C@]43C)C2C1 (stereo partly drawn) [Compound B4] | 0.0144 ± 0.00189 µM | >695.89 |  | > 10 µM | HepG2 cell viability rate (HepG2 cells [1]; 50 μM): close to that of the control group; percentage of apoptotic cells (HepG2 cells [2]): 7.69%; effect on SH-SY5Y cell viability (SH-SY5Y cells; 50 μM): little effect; intracellular ROS levels (in words) (HepG2 cells [3]): significantly lower than that in the tacrine group
3 | CC1(C)CC[C@]2(C(=O)NCCNc3c4c(nc5c(Cl)cccc35)CCCC4)CC[C@]3(C)C(=CCC4[C@@]5(C)CC[C@H](O)C(C)(C)C5CC[C@]43C)C2C1 (stereo partly drawn) [Compound C1, N-(2-((5-chloro-1,2,3,4-tetrahydroacridin-9-yl)amino)ethyl)-olean-12-en-28-amide] | > 10 µM |  | > 10 µM |  | 
4 | CC1(C)CC[C@]2(C(=O)NCCCNc3c4c(nc5c(Cl)cccc35)CCCC4)CC[C@]3(C)C(=CCC4[C@@]5(C)CC[C@H](O)C(C)(C)C5CC[C@]43C)C2C1 (stereo partly drawn) [Compound C2, N-(3-((5-chloro-1,2,3,4-tetrahydroacridin-9-yl)amino)propyl)-olean-12-en-28-amide] | > 10 µM |  | > 10 µM |  | 
5 | CC1(C)CC[C@]2(C(=O)NCCNc3c4c(nc5cc(Br)ccc35)CCCC4)CC[C@]3(C)C(=CCC4[C@@]5(C)CC[C@H](O)C(C)(C)C5CC[C@]43C)C2C1 (stereo partly drawn) [Compound D1, N-(2-((6-bromo-1,2,3,4-tetrahydroacridin-9-yl)amino)ethyl)-olean-12-en-28-amide] | > 10 µM |  | > 10 µM |  | 
6 | CC1(C)CC[C@]2(C(=O)NCCCNc3c4c(nc5c(Br)cccc35)CCCC4)CC[C@]3(C)C(=CCC4[C@@]5(C)CC[C@H](O)C(C)(C)C5CC[C@]43C)C2C1 (stereo partly drawn) [Compound E2] |  |  |  | > 10 µM | IC50 (hAChE; [4]): > 10 µM
7 | CC1(C)CC[C@]2(C(=O)NCCCCCCNc3c4c(nc5c(Br)cccc35)CCCC4)CC[C@]3(C)C(=CCC4[C@@]5(C)CC[C@H](O)C(C)(C)C5CC[C@]43C)C2C1 (stereo partly drawn) [Compound E5, N-(6-((5-bromo-1,2,3,4-tetrahydroacridin-9-yl)amino)hexyl)-olean-12-en-28-amide] | > 10 µM |  | > 10 µM |  | 
8 | CC1(C)CC[C@]2(C(=O)NCCNc3c4c(nc5cc(F)ccc35)CCCC4)CC[C@]3(C)C(=CCC4[C@@]5(C)CC[C@H](O)C(C)(C)C5CC[C@]43C)C2C1 (stereo partly drawn) [Compound F1, N-(2-((6-fluoro-1,2,3,4-tetrahydroacridin-9-yl)amino)ethyl)-olean-12-en-28-amide] | > 10 µM |  | > 10 µM |  | 
9 | CC1(C)CC[C@]2(C(=O)NCCCNc3c4c(nc5cc(F)ccc35)CCCC4)CC[C@]3(C)C(=CCC4[C@@]5(C)CC[C@H](O)C(C)(C)C5CC[C@]43C)C2C1 (stereo partly drawn) [Compound F2] | > 10 µM |  |  | > 10 µM | 
10 | CC1(C)CC[C@]2(C(=O)NCCCCNc3c4c(nc5cc(F)ccc35)CCCC4)CC[C@]3(C)C(=CCC4[C@@]5(C)CC[C@H](O)C(C)(C)C5CC[C@]43C)C2C1 (stereo partly drawn) [Compound F3, N-(4-((6-fluoro-1,2,3,4-tetrahydroacridin-9-yl)amino)butyl)-olean-12-en-28-amide] |  |  |  | > 10 µM | IC50 (hAChE; [4]): > 10 µM
11 | CC1(C)CC[C@]2(C(=O)NCCCNc3c4c(nc5c(F)cccc35)CCCC4)CC[C@]3(C)C(=CCC4[C@@]5(C)CC[C@H](O)C(C)(C)C5CC[C@]43C)C2C1 (stereo partly drawn) [Compound G2] | > 10 µM | <0.09 |  | 0.921 ± 0.0587 µM | 
12 | CC1(C)CC[C@]2(C(=O)NCCCCCNc3c4c(nc5c(F)cccc35)CCCC4)CC[C@]3(C)C(=CCC4[C@@]5(C)CC[C@H](O)C(C)(C)C5CC[C@]43C)C2C1 (stereo partly drawn) [Compound G4, N-(5-((5-fluoro-1,2,3,4-tetrahydroacridin-9-yl)amino)pentyl)-olean-12-en-28-amide] | > 10 µM | <0.16 | 1.6 ± 0.0904 µM |  | 
13 | CC1(C)CC[C@]2(C(=O)NCCCCCCNc3c4c(nc5c(F)cccc35)CCCC4)CC[C@]3(C)C(=CCC4[C@@]5(C)CC[C@H](O)C(C)(C)C5CC[C@]43C)C2C1 (stereo partly drawn) [Compound G5, N-(6-((5-fluoro-1,2,3,4-tetrahydroacridin-9-yl)amino)hexyl)-olean-12-en-28-amide] | > 10 µM | <0.38 | 3.81 ± 1.04 µM |  | 
14 | Nc1c2c(nc3ccccc13)CCCC2 [Tacrine] |  |  |  |  | cytotoxicity to HepG2 cells (cell viability) (HepG2 cells [1]; 50–100 μM): cytotoxic; percentage of apoptotic cells (HepG2 cells [2]): 18.90%; cytotoxicity to SH-SY5Y cells (cell viability) (SH-SY5Y cells; 50–100 μM): cytotoxic; intracellular ROS levels (in words) (HepG2 cells [3]): significant hepatotoxicity
